ChEMBL document CHEMBL5625179, “2-Substituted quinazolines: Partial agonistic and antagonistic ligands of the constitutive androstane receptor (CAR)” (Eur J Med Chem, 2023)
pEC50, pIC50: −log10 of the molar value.

Experiments:
Assay type in all cases: cell-based; call rule not given here
[1] = molecular target: T1, Nuclear receptor subfamily 1 group I member 3 (Homo sapiens, UniProt Q14994); assay: Activation of human CAR3 expressed in human HepG2 cells at 30 uM incubated for 24 hrs by dual luciferase gene reporter assay relative to CITCO; conditions: hepg2, 24 h
T1 sequence (Q14994 whole entry): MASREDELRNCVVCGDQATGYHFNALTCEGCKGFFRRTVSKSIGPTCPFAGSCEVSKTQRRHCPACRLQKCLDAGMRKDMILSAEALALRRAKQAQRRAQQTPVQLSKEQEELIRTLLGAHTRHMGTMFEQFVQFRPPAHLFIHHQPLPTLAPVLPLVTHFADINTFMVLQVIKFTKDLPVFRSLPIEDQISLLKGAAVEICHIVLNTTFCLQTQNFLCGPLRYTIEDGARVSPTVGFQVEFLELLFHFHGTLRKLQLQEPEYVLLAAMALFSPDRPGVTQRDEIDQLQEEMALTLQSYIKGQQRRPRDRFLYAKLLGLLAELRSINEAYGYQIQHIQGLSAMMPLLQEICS

[2] = molecular target: T1, Nuclear receptor subfamily 1 group I member 3; assay: Activation of human CAR LBD expressed in human HepG2 cells at 30 uM incubated for 24 hrs by dual luciferase reporter assay relative to CITCO; conditions: hepg2, 24 h
[3] = molecular target: T1, Nuclear receptor subfamily 1 group I member 3; assay: Antagonist activity at human CAR LBD expressed in human HepG2 cells at 30 uM incubated for 24 hrs in presence of CITCO by dual luciferase reporter assay; conditions: hepg2, 24 h
[4] = molecular target: T1, Nuclear receptor subfamily 1 group I member 3; assay: Antagonist activity at human CAR LBD (151 to 349 residues) expressed in HepG2 cells co-expressed with pGL5-luc luciferase assessed as reduction in CAR activation measured after 1 to 4 hrs by LanthaScreen TR-FRET assay; conditions: time 1-4 hrs
[5] = molecular target: T1, Nuclear receptor subfamily 1 group I member 3; assay: Partial agonist activity at human CAR LBD (151 to 349 residues) expressed in HepG2 cells coexpressed with pGL5-luc luciferase measured after 1 to 4 hrs by LanthaScreen TR-FRET assay; conditions: for Activity: human, hepg2, time 1-4 hrs
[6] = molecular target: T1, Nuclear receptor subfamily 1 group I member 3; assay: Partial agonist activity human CAR3 expressed in human HepG2 cells at 30 uM incubated for 24 hrs by dual luciferase gene reporter assay relative to CITCO; conditions: hepg2, 24 h
CAR (NR1I3) LBD [7] = molecular target: T2, CAR (NR1I3) LBD (Homo sapiens, UniProt Q14994); assay: Partial agonist activity at human CAR LBD expressed in human HepG2 cells at 30 uM incubated for 24 hrs by dual luciferase reporter assay relative to CITCO; conditions: HepG2 cells expressing human CAR LBD, read-out: Activity
T2 sequence (Q14994 whole entry): T1 sequence (Q14994 whole entry)

CAR3 (NR1I3) = molecular target: T3, CAR3 (NR1I3) (Homo sapiens, UniProt Q14994); assay: Antagonist activity at human CAR3 expressed in human HepG2 cells at 30 uM incubated for 24 hrs by dual luciferase gene reporter assay relative to CITCO; set-up: scale not given: the % may be the effect or the level left; conditions: HepG2 cells expressing human CAR3, read-out: Activity
T3 sequence (Q14994 whole entry): T1 sequence (Q14994 whole entry)

CAR (NR1I3) LBD [8] = molecular target: T2, CAR (NR1I3) LBD; assay: Antagonist activity at human CAR LBD expressed in human HepG2 cells at 30 uM incubated for 24 hrs by dual luciferase reporter assay relative to CITCO; set-up: scale not given: the % may be the effect or the level left; conditions: HepG2 cells expressing human CAR LBD, read-out: Activity
[9] = molecular target: T1, Nuclear receptor subfamily 1 group I member 3; assay: Antagonist activity at human CAR LBD (151 to 349 residues) expressed in HepG2 cells co-expressed with pGL5-luc luciferase assessed as reduction in CAR activation measured after 1 to 4 hrs in presence of CITCO by LanthaScreen TR-FRET assay
[10] = molecular target: T1, Nuclear receptor subfamily 1 group I member 3; assay: Antagonist activity at human CAR LBD expressed in human HepG2 cells incubated for 24 hrs in presence of CITCO by dual luciferase reporter assay

| Compound | Activity [1] [%] | Activity [2] [%] | also measured |
| --- | --- | --- | --- |
| COc1ccc(-c2nc3ccccc3c(=O)[nH]2)cc1 | 33 | 3 |  |
| Cc1cccc(-c2nc3ccccc3c(=O)n2C)c1 | 13 | -3 |  |
| O=c1[nH]c(-c2ccc(C(F)(F)F)cc2)nc2ccccc12 | 12 | -8 |  |
| O=c1[nH]c(-c2ccc(Cl)c(Cl)c2)nc2ccccc12 | 9 | -6 |  |
| O=c1[nH]c(-c2ccc3c(c2)OCO3)nc2ccccc12 | 3 | -2 |  |
| Cn1c(-c2ccc(OC(F)(F)F)cc2)nc2ccccc2c1=O | 22 | -8 | Activity [3]: Active; Activity [4]: Not Active; Activity [5]: Not Active |
| CSc1nc(-c2cccc(C)c2)nc2ccccc12 |  |  | Activity [6]: 44%; Activity [3]: Active; activity at 24 h, 30 µM (CAR (NR1I3) LBD [7]): 36.3%; pEC50 [5]: 4.98 |
| Sc1nc(-c2ccc(Br)cc2)nc2ccccc12 |  |  | activity at 24 h, 30 µM (CAR3 (NR1I3)): 44%; Activity [3]: Active; Activity [4]: Not Active; Activity [5]: Not Active; activity at 24 h, 30 µM (CAR (NR1I3) LBD [8]): 1%; pIC50 [9]: 4.02; pIC50 [10]: 4.52 |
| COc1nc(-c2ccc(OC(F)(F)F)cc2)nc2ccccc12 | 5 | -3 |  |
| CC(C)(C)c1ccc(-c2nc3ccccc3c(=S)[nH]2)cc1 | 9 | 1 |  |
| O=c1[nH]c(-c2ccc(Br)cc2)nc2ccccc12 | 12 | 3 |  |
| O=[N+]([O-])c1cccc(-c2nc3ccccc3c(=S)[nH]2)c1 | 11 | 1 |  |
| CC(C)(C)c1ccc(-c2nc3ccccc3c(=O)[nH]2)cc1 | 7 | -5 |  |
| S=c1[nH]c(-c2cccc(Cl)c2)nc2ccccc12 | 15 | 6 |  |
| Cn1c(-c2ccc(F)cc2)nc2ccccc2c1=O | 13 | -5 |  |

The next lines start with results.

| Activity [1] [%] | Activity [2] [%] | Compound | also measured |
| --- | --- | --- | --- |
| 13 | -4 | COc1ccc(-c2nc3ccccc3c(=S)[nH]2)cc1OC |  |
| 15 | -3 | COc1nc(-c2cccc([N+](=O)[O-])c2)nc2ccccc12 |  |
| 15 | -6 | COc1ccc(-c2nc3ccccc3c(=O)n2C)cc1OC |  |
| 5 | -5 | COc1nc(-c2cccc(F)c2)nc2ccccc12 |  |
| 34 | 5 | Cc1cccc(-c2nc(O)c3ccccc3n2)c1 |  |
| 10 | -6 | Oc1nc(-c2ccc(F)cc2)nc2ccccc12 |  |
| 28 | 3 | COc1ccc(-c2nc(O)c3ccccc3n2)cc1OC |  |
